This passage reports ED50 and LD50 results from US3954777A, “Aminopropionyl derivatives of 2,3-diphenyl cyclopropylamine” (Zambon S.p.A., priority 1970, dated 1976).

In data set [1] the test system is crisis produced with electroshock. The data set is described as follows: Electroshock (M.E.S.), protection from extensor phase of hind paws. The data set is classed as in vivo, male albine Swiss mice. Conditions: Mus musculus. The procedure: (§1) The preferred method is that according to Schotten-Baumann. […] Preferably an excess of the same amine is used both as acid binding substance and as solvent. If the amine is a low-boiling one the reaction is carried out in a sealed tube while if the amine has a high-boiling point is preferred to operate at the boiling temperature of the reaction mixture. […] Materials and methods. The animals used in the tests, unless otherwise indicated, were male albine Swiss mice weighing 19-23 g; each animal has been used only once.
(§2) Electroshock (M.E.S.). The method followed in performing the electroshock is C. H. Cashin and J. Jackson's method (J.Pharm.Pharmacol.,1962, 14 (supl.) 445) modified as follows: the electrodes are placed in the outer ear which is, before the shock, filled with a physiological solution. The applied voltage is of 92 volts with a current of 50 Hz stabilized with Selonix H.T. 4420 stabilizer; duration of shock 0.2 seconds. […] (E. A. Swinyard, W. C. Brown; L. S. Goodman, J. Pharmacol., 1952, 106, 319) Schock by cardiazol (M.M.S.). 38 mg/kg of cardiazol, under the form of a 0.38% aqueous solution, is quickly injected in the dorsal vein of the mouse tail (L. S. Goodman, M. Singh Grewal, W. C. Brown, E. A. Swinyard, J. Pharmacol. 1953, 108, 168). The animals are considered as protected when the extensor phase of the hind paws is eliminated during the tonic crisis. The so obtained data have been elaborated by calculating the ED50 and the LD50 according to Lichtfield-Wilcoxon's method (J. Pharmacol. 1949, 96, 99).

The subject of data set [2] is crisis produced with cardiazol. The data set is described as follows: Schock by cardiazol (M.M.S.), protection from extensor phase of hind paws. Conditions: Mus musculus. Format: in vivo, male albine Swiss mice. How it is done:
as §1, §2

Data set [3] can be described thus: in vivo. The note with it: mouse, ip. How it is done:
as §1, §2

The mark [4] stands for this setting: sc, 0.5 h, new compounds (Table 2), under skin, 30 minutes ante, as hydrochlorides, read-out: ED50 M.E.S.
The mark [5] stands for this setting: sc, 0.5 h, new compounds (Table 2), under skin, 30 minutes ante, as hydrochlorides, cardiazol 38 mg/kg i.v., read-out: ED50 M.M.S.
[6] abbreviates: sc, 0.5 h, read-out: M.M.S. ED50.
The mark [7] stands for this setting: sc, 0.5 h, reference compounds (Table 1), under skin, 30 minutes ante, cardiazol 38 mg/kg i.v., read-out: M.M.S. ED50.
The mark [8] stands for this setting: sc, 0.5 h, reference compounds (Table 1), under skin, 30 minutes ante, read-out: M.E.S.-ED50.

Where a name gives a salt, the structure may show the parent alone. Read-outs that look alike come from different tables or passages of the source.

For `O=C(CCN1CCCC1)NC1[C@H](c2ccccc2)[C@H]1c1ccccc1` (relative stereo) [cis-trans (line b76)], the ED50 in data set [1] (setting [4]) is 24 mg/kg; in data set [2] (setting [5]), 20 mg/kg.

As for `O=C(CCN1CCCCC1)NC1[C@H](c2ccccc2)[C@H]1c1ccccc1` (relative stereo) [cis-trans (line b79)], the ED50 in data set [1] (setting [4]) turned out to be 16 mg/kg; in data set [2] (setting [5]), 15 mg/kg.

Take `CN1CCN(CCC(=O)NC2[C@H](c3ccccc3)[C@H]2c2ccccc2)CC1` (relative stereo) [cis-trans (line b82)]: the 50% effective dose (ED50) in data set [1] (setting [4]) amounted to 275 mg/kg.

Take `CCN(CC)CCC(=O)NC1[C@H](c2ccccc2)[C@H]1c1ccccc1` (relative stereo) [cis-trans, R1 = C2 H5, R2 = C2 H5, N-(beta-diethylamino)propionyl-2,3 -cis,trans-diphenylcyclopropylamine]: the ED50 in data set [1] (setting [4]) was 33.5 mg/kg; in data set [2] (setting [5]), 27 mg/kg. Further, the LD50 at 72 h in data set [3] was 79 mg/kg.

For the compound `CN(CCC(=O)NC1[C@H](c2ccccc2)[C@H]1c1ccccc1)Cc1ccccc1` (relative stereo) [cis-trans, R1 = CH3, R2 = CH2 --C6 H5, N-[beta-(N'-benzyl)methylamino]propionyl-2,3-cis,trans-diphenylcyclopropylamine hydrochloride], the figures for the ED50 in data set [1] (setting [4]) and in data set [2] (setting [5]) were 91 mg/kg and 98 mg/kg, respectively.

For `CN(C)CCC(=O)NC1[C@H](c2ccccc2)[C@H]1c1ccccc1` (relative stereo) [cis-trans, R1 = CH3, R2 = CH3, N-(beta-dimethylamino)propionyl-2,3 -cis,trans-diphenylcyclopropylamine], the results for the ED50 in data set [1] (setting [4]) and in data set [2] (setting [5]) were 21.8 mg/kg and 16.5 mg/kg, respectively. The LD50 at 72 h in data set [3] was 88 mg/kg.

As to `CCNCCC(=O)NC1[C@H](c2ccccc2)[C@H]1c1ccccc1` (relative stereo) [cis-trans, R1 = H, R2 = C2 H5, N-(beta-ethylamino)propionyl- 2,3 -cis,trans-diphenylcyclopropylamine hydrochloride], the ED50 in data set [1] (setting [4]) and in data set [2] (setting [5]) was above 90 mg/kg throughout. In data set [3], the LD50 at 72 h came out at 89.5 mg/kg.

Turning to `CNCCC(=O)NC1[C@H](c2ccccc2)[C@H]1c1ccccc1` (relative stereo) [cis-trans, R1 = H, R2 = CH3, N-(beta-methylamino)-propionyl-2,3 -cis,trans-diphenyl cyclopropylamine hydrochloride], the ED50 in data set [1] (setting [4]) and in data set [2] (setting [5]) was above 120 mg/kg in each case. Further, in data set [3], the LD50 at 72 h amounted to 120 mg/kg.

With `CCC1(c2ccccc2)C(=O)NC(=O)NC1=O` [Phenobarbital sodium salt, reference compound], the ED50 in data set [1] (sc, 0.5 h, read-out: M.E.S.-ED50) worked out at 35 mg/kg; in data set [2] (setting [6]), 4.5 mg/kg. For the same compound, in data set [3] (in vivo), the LD50 at 72 h came out at 182 mg/kg.

For the compound `CN(C)C(=O)Nc1ccccc1` [Phenurone, 1,1-dimethyl-3-phenyl-urea, reference compound], the ED50 in data set [1] (po, 1 h, read-out: M.E.S.-ED50) worked out at 115 mg/kg; in data set [2] (po, 1 h, read-out: M.M.S. ED50), 50 mg/kg.

In the case of `CN1C(=O)OC(C)(C)C1=O` [Trimethadione, reference compound], the ED50 in data set [2] (setting [6]) is 175 mg/kg.

Consider `CCC1(C)CC(=O)NC1=O` (centres unmarked) [ethosuximide, reference compound], for which the ED50 in data set [2] (setting [7]) worked out at 50 mg/kg.

With `Cc1ccccc1OCC(O)CO` (centres unmarked) [mephenesin, reference compound], the ED50 was found to be 245 mg/kg in data set [1] (setting [8]) and 180 mg/kg in data set [2] (setting [7]).

As to `O=C1NC(=O)C(c2ccccc2)(c2ccccc2)N1` [phenitoine sodium salt, reference compound], the ED50 in data set [1] (setting [8]) is 15 mg/kg; in data set [2] (setting [7]), 7.1 mg/kg. This compound gave an LD50 at 72 h in data set [3] (in vivo) of 120 mg/kg.

As to `CCC1(c2ccccc2)C(=O)NCNC1=O` [primidone, reference compound], the ED50 in data set [2] (po, reference compound (Table 1), per os, 6 hours ante, cardiazol 38 mg/kg i.v., read-out: M.M.S. ED50) is 5.2 mg/kg.
